Source: patent publication US20260232767A1, “INTERLEUKIN-23 RECEPTOR ANTAGONIST PEPTIDES FOR USE IN THE TREATMENT OF PSORIASIS” (Janssen Pharmaceutica NV, priority 2023, published 2026)

System: subjects with moderate-to-severe plaque psoriasis
Assay: Safety, adverse events, Example 2 through Week 56
Type: in vivo, human
Conditions: through Week 56; for Subjects with 1 or more Serious adverse events: Tonsillar hypertrophy / Subjects with 1 or more Serious adverse events: Uterine leiomyoma / Subjects with 1 or more Serious adverse events: Ventricular dysfunction / Subjects with 1 or more treatment-emergent adverse events leading to discontinuation of study agent / Subjects with 1 or more Adverse events / Subjects with 1 or more Adverse events: Alanine aminotransferase increased / Subjects with 1 or more Adverse events: Arthralgia / Subjects with 1 or more Adverse events: Aspartate aminotransferase increased / Subjects with 1 or more Adverse events: Bronchitis / Subjects with 1 or more Adverse events: COVID-19 / Subjects with 1 or more Adverse events: Cough / Subjects with 1 or more Adverse events: Diarrhea / Subjects with 1 or more Adverse events: Headache / Subjects with 1 or more Adverse events: Influenza / Subjects with 1 or more Adverse events: Nasopharyngitis / Subjects with 1 or more Adverse events: Upper respiratory tract infection / Subjects with 1 or more Adverse events: Urinary tract infection / Subjects with 1 or more Serious adverse events / Subjects with 1 or more Serious adverse events: COVID-19 / Subjects with 1 or more Serious adverse events: Cerebrovascular accident / Subjects with 1 or more Serious adverse events: Coronary artery disease / Subjects with 1 or more Serious adverse events: Diverticulitis / Subjects with 1 or more Serious adverse events: Foot deformity / Subjects with 1 or more Serious adverse events: Infected cyst / Subjects with 1 or more Serious adverse events: Intervertebral disc protrusion / Subjects with 1 or more Serious adverse events: Ligament injury / Subjects with 1 or more Serious adverse events: Non-cardiac chest pain / Subjects with 1 or more Serious adverse events: Suicide attempt: number of subjects
Excerpt: The LTE safety analysis was based on randomized participants in Example who entered the present long-term extension study and received at least one dose of study intervention (including a partial dose) during the study period.

[1] = Placebo → 100 mg QD after crossover

Structure (SMILES): CC(=O)NCCCC[C@@H]1NC(=O)[C@H](Cc2c[nH]c3c(C)cccc23)NC(=O)[C@H]([C@@H](C)O)NC(=O)[C@H](CC(N)=O)NC(=O)[C@@H](NC(C)=O)C(C)(C)SSC(C)(C)[C@@H](C(=O)N[C@@H](Cc2ccc(OCCN)cc2)C(=O)N[C@@H](Cc2ccc3ccccc3c2)C(=O)NC2(C(=O)N[C@@H](CCC(=O)O)C(=O)N[C@@H](CC(N)=O)C(=O)N[C@@H](Cc3cccnc3)C(=O)N(C)CC(N)=O)CCOCC2)NC1=O [IL-23 receptor antagonist peptide, Ac-[Pen]*-N-T-[W(7-Me)]-[Lys(Ac)]-[Pen]*-Phe[4-(2-aminoethoxy)]-[2-Nal]-[THP]-E-N-[3-Pal]-Sarc-NH2 (*[Pen]-[Pen]* formdisulfidebond)]
- Subjects with 1 or more Serious adverse events: Tonsillar hypertrophy (50 mg QD): 0
- Subjects with 1 or more Serious adverse events: Uterine leiomyoma (50 mg QD): 0
- Subjects with 1 or more Serious adverse events: Ventricular dysfunction (50 mg QD): 0
- Subjects with 1 or more treatment-emergent adverse events leading to discontinuation of study agent (50 mg QD): 2
- Subjects with 1 or more Adverse events (100 mg BID): 32
- Subjects with 1 or more Adverse events: Alanine aminotransferase increased (100 mg BID): 4
- Subjects with 1 or more Adverse events: Arthralgia (100 mg BID): 2
- Subjects with 1 or more Adverse events: Aspartate aminotransferase increased (100 mg BID): 3
- Subjects with 1 or more Adverse events: Bronchitis (100 mg BID): 0
- Subjects with 1 or more Adverse events: COVID-19 (100 mg BID): 7
- Subjects with 1 or more Adverse events: Cough (100 mg BID): 2
- Subjects with 1 or more Adverse events: Diarrhea (100 mg BID): 1
- Subjects with 1 or more Adverse events: Headache (100 mg BID): 1
- Subjects with 1 or more Adverse events: Influenza (100 mg BID): 1
- Subjects with 1 or more Adverse events: Nasopharyngitis (100 mg BID): 5
- Subjects with 1 or more Adverse events: Upper respiratory tract infection (100 mg BID): 5
- Subjects with 1 or more Adverse events: Urinary tract infection (100 mg BID): 2
- Subjects with 1 or more Serious adverse events (100 mg BID): 1
- Subjects with 1 or more Serious adverse events: COVID-19 (100 mg BID): 0
- Subjects with 1 or more Serious adverse events: Cerebrovascular accident (100 mg BID): 0
- Subjects with 1 or more Serious adverse events: Coronary artery disease (100 mg BID): 0
- Subjects with 1 or more Serious adverse events: Diverticulitis (100 mg BID): 0
- Subjects with 1 or more Serious adverse events: Foot deformity (100 mg BID): 0
- Subjects with 1 or more Serious adverse events: Infected cyst (100 mg BID): 0
- Subjects with 1 or more Serious adverse events: Intervertebral disc protrusion (100 mg BID): 0
- Subjects with 1 or more Serious adverse events: Ligament injury (100 mg BID): 0
- Subjects with 1 or more Serious adverse events: Non-cardiac chest pain (100 mg BID): 0
- Subjects with 1 or more Serious adverse events: Suicide attempt (100 mg BID): 0
- Subjects with 1 or more Serious adverse events: Tonsillar hypertrophy (100 mg BID): 0
- Subjects with 1 or more Serious adverse events: Uterine leiomyoma (100 mg BID): 1
- Subjects with 1 or more Serious adverse events: Ventricular dysfunction (100 mg BID): 0
- Subjects with 1 or more treatment-emergent adverse events leading to discontinuation of study agent (100 mg BID): 1
- Subjects with 1 or more Adverse events (100 mg QD): 31
- Subjects with 1 or more Adverse events: Alanine aminotransferase increased (100 mg QD): 0
- Subjects with 1 or more Adverse events: Arthralgia (100 mg QD): 3
- Subjects with 1 or more Adverse events: Aspartate aminotransferase increased (100 mg QD): 0
- Subjects with 1 or more Adverse events: Bronchitis (100 mg QD): 0
- Subjects with 1 or more Adverse events: COVID-19 (100 mg QD): 5
- Subjects with 1 or more Adverse events: Cough (100 mg QD): 3
- Subjects with 1 or more Adverse events: Diarrhea (100 mg QD): 1
- Subjects with 1 or more Adverse events: Headache (100 mg QD): 5
- Subjects with 1 or more Adverse events: Influenza (100 mg QD): 1
- Subjects with 1 or more Adverse events: Nasopharyngitis (100 mg QD): 11
- Subjects with 1 or more Adverse events: Upper respiratory tract infection (100 mg QD): 2
- Subjects with 1 or more Adverse events: Urinary tract infection (100 mg QD): 0
- Subjects with 1 or more Serious adverse events (100 mg QD): 3
- Subjects with 1 or more Serious adverse events: COVID-19 (100 mg QD): 1
- Subjects with 1 or more Serious adverse events: Cerebrovascular accident (100 mg QD): 0
- Subjects with 1 or more Serious adverse events: Coronary artery disease (100 mg QD): 0
- Subjects with 1 or more Serious adverse events: Diverticulitis (100 mg QD): 1
- Subjects with 1 or more Serious adverse events: Foot deformity (100 mg QD): 0
- Subjects with 1 or more Serious adverse events: Infected cyst (100 mg QD): 0
- Subjects with 1 or more Serious adverse events: Intervertebral disc protrusion (100 mg QD): 1
- Subjects with 1 or more Serious adverse events: Ligament injury (100 mg QD): 0
- Subjects with 1 or more Serious adverse events: Non-cardiac chest pain (100 mg QD): 0
- Subjects with 1 or more Serious adverse events: Suicide attempt (100 mg QD): 1
- Subjects with 1 or more Serious adverse events: Tonsillar hypertrophy (100 mg QD): 0
- Subjects with 1 or more Serious adverse events: Uterine leiomyoma (100 mg QD): 0
- Subjects with 1 or more Serious adverse events: Ventricular dysfunction (100 mg QD): 0
- Subjects with 1 or more treatment-emergent adverse events leading to discontinuation of study agent (100 mg QD): 2
- Subjects with 1 or more Adverse events (Combined): 174
- Subjects with 1 or more Adverse events: Alanine aminotransferase increased (Combined): 9
- Subjects with 1 or more Adverse events: Arthralgia (Combined): 8
- Subjects with 1 or more Adverse events: Aspartate aminotransferase increased (Combined): 7
- Subjects with 1 or more Adverse events: Bronchitis (Combined): 9
- Subjects with 1 or more Adverse events: COVID-19 (Combined): 35
- Subjects with 1 or more Adverse events: Cough (Combined): 8
- Subjects with 1 or more Adverse events: Diarrhea (Combined): 11
- Subjects with 1 or more Adverse events: Headache (Combined): 12
- Subjects with 1 or more Adverse events: Influenza (Combined): 7
- Subjects with 1 or more Adverse events: Nasopharyngitis (Combined): 49
- Subjects with 1 or more Adverse events: Upper respiratory tract infection (Combined): 24
- Subjects with 1 or more Adverse events: Urinary tract infection (Combined): 8
- Subjects with 1 or more Serious adverse events (Combined): 11
- Subjects with 1 or more Serious adverse events: COVID-19 (Combined): 1
- Subjects with 1 or more Serious adverse events: Cerebrovascular accident (Combined): 1
- Subjects with 1 or more Serious adverse events: Coronary artery disease (Combined): 1
- Subjects with 1 or more Serious adverse events: Diverticulitis (Combined): 1
- Subjects with 1 or more Serious adverse events: Foot deformity (Combined): 1
- Subjects with 1 or more Serious adverse events: Infected cyst (Combined): 1
- Subjects with 1 or more Serious adverse events: Intervertebral disc protrusion (Combined): 1
- Subjects with 1 or more Serious adverse events: Ligament injury (Combined): 1
- Subjects with 1 or more Serious adverse events: Non-cardiac chest pain (Combined): 1
- Subjects with 1 or more Serious adverse events: Suicide attempt (Combined): 1
- Subjects with 1 or more Serious adverse events: Tonsillar hypertrophy (Combined): 1
- Subjects with 1 or more Serious adverse events: Uterine leiomyoma (Combined): 1
- Subjects with 1 or more Serious adverse events: Ventricular dysfunction (Combined): 1
- Subjects with 1 or more treatment-emergent adverse events leading to discontinuation of study agent (Combined): 10
- Subjects with 1 or more Adverse events [1]: 23
- Subjects with 1 or more Adverse events: Alanine aminotransferase increased [1]: 2
- Subjects with 1 or more Adverse events: Arthralgia [1]: 1
- Subjects with 1 or more Adverse events: Aspartate aminotransferase increased [1]: 1
- Subjects with 1 or more Adverse events: Bronchitis [1]: 1
- Subjects with 1 or more Adverse events: COVID-19 [1]: 2
- Subjects with 1 or more Adverse events: Cough [1]: 0
- Subjects with 1 or more Adverse events: Diarrhea [1]: 1
- Subjects with 1 or more Adverse events: Headache [1]: 0
- Subjects with 1 or more Adverse events: Influenza [1]: 1
- Subjects with 1 or more Adverse events: Nasopharyngitis [1]: 9
- Subjects with 1 or more Adverse events: Upper respiratory tract infection [1]: 4
- Subjects with 1 or more Adverse events: Urinary tract infection [1]: 2
- Subjects with 1 or more Serious adverse events [1]: 1
- Subjects with 1 or more Serious adverse events: COVID-19 [1]: 0
- Subjects with 1 or more Serious adverse events: Cerebrovascular accident [1]: 1
- Subjects with 1 or more Serious adverse events: Coronary artery disease [1]: 0
- Subjects with 1 or more Serious adverse events: Diverticulitis [1]: 0
- Subjects with 1 or more Serious adverse events: Foot deformity [1]: 0
- Subjects with 1 or more Serious adverse events: Infected cyst [1]: 0
- Subjects with 1 or more Serious adverse events: Intervertebral disc protrusion [1]: 0
- Subjects with 1 or more Serious adverse events: Ligament injury [1]: 0
- Subjects with 1 or more Serious adverse events: Non-cardiac chest pain [1]: 0
- Subjects with 1 or more Serious adverse events: Suicide attempt [1]: 0
- Subjects with 1 or more Serious adverse events: Tonsillar hypertrophy [1]: 0
- Subjects with 1 or more Serious adverse events: Uterine leiomyoma [1]: 0
- Subjects with 1 or more Serious adverse events: Ventricular dysfunction [1]: 0
- Subjects with 1 or more treatment-emergent adverse events leading to discontinuation of study agent [1]: 0
- Subjects with Abdominal distension: 0
- Subjects with Abscess limb: 0
- Subjects with Constipation: 0
- Subjects with Gastrointestinal disorders (system organ class): (16.7%)
- Subjects with Headache: (11.6%)
